Values quoted from earlier work in patent US20030096243A1, “Methods and reagents for live-cell gene expression quantification” (priority 2000, published 2003).
Ends that are not written are not given here. * marks the point of attachment. FITC = O=C1OC2(c3ccc(O)cc3Oc3cc(O)ccc32)c2ccc(NC(=S)*)cc21

Columns and labels:
N protein = target: T1, N protein (Escherichia phage lambda, UniProt P03045); conditions: native sequence GCCCUGAAAAAGGGC (SEQ ID NO: 45)
T1 sequence (P03045 1-107): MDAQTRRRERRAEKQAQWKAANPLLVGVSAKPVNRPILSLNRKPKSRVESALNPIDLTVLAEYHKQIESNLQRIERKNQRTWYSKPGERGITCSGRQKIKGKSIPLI

[1] = system: boxB RNA stem-loop structure

| Substance | in vivo activity relative to the native boxB sequence (N protein) | affinity for boxB RNA [1] |
| --- | --- | --- |
| GCCCUAAAAAAGGGC (chemistry not given here) [SEQ ID NO: 44] | less than 1% |  |
| GCCCUAGAAAAGGGC (chemistry not given here) [SEQ ID NO: 46] | ~90% |  |
| N1-22: arginine-rich peptide comprising the first twenty-two amino acids of bacteriophage λ N protein ({FITC}-MDAQTRRRERRAEKQAQWKAANKG; not fully specified (residue 23); also: doubly labeled) |  | high affinity |
